Literature values, collected in patent US20090131498A1, “Enantioselective Synthesis of Merrilactone and Its Analogs” (priority 2005, published 2009).

Tested on: neurite growth
Details: described by Fukuyama et al. (ref. 3)

For C[C@@]12COC(=O)[C@]1(C)C1O[C@]3(C)[C@@H](O)C[C@]24OC(=O)C[C@]143 (stereo partly shown) [merrilactone A, Merrilactone A], the “activity in a neurite growth assay” value is listed as “promising activity”.
